Measurements as given in patent US20110053900A1, “PROGESTERONE ANTAGONISTS SUCH AS CDB-4124 IN THE TREATMENT OF BREAST CANCER” (Repros Therapeutics inc, priority 2008, published 2011).

Columns and labels:
[1] = test system: progesterone receptor (PR); assay: Expression of progesterone receptor in tumors (IHC); type: in vivo, rat; settings: 10 mg/kg
Protocol: The tumors that were evaluated for proliferation and apoptosis were also assessed for expression of estrogen and progesterone receptors by immunohistochemistry (IHC). The percentage of cells positive for ER and PR was determined and analyzed. Tumors were grouped into four different categories: tumors with 0% of cells expressing ER, tumors with 10% of cells expressing ER, tumors with 15 to 30% of cells expressing ER and tumors with 30-50% of cells expressing ER. In general, untreated tumors consistently expressed ER. Out of 12 tumors analyzed, all 12 expressed ER. Four out of these 12 tumors contained 30-50% ER-positive cells.
Untreated tumors consistently expressed PR (12/12 tumors). In general, untreated tumors expressed both receptors, ER and PR, therefore it is possible that many malignant tumors are expressors of these two transcription factors. […] In general, long term treatment with CDB-4124 tends to drive down the level of PR in tumors, whereas progesterone tends to work in the opposite direction. Thus, tumors maintain progesterone responsiveness in the presence of progesterone.

[2] = target: T1, glucocorticoid receptor (rbGR) (Oryctolagus cuniculus, UniProt P59667); assay: Glucocorticoid receptor binding; set-up: species or system rabbit
T1 construct: cytosol containing PR or GR were prepared in TEGMD buffer; from tissue; host or cells: thymus of estradiol-primed immature rabbits (cytosol)
T1 sequence (P59667 1-772): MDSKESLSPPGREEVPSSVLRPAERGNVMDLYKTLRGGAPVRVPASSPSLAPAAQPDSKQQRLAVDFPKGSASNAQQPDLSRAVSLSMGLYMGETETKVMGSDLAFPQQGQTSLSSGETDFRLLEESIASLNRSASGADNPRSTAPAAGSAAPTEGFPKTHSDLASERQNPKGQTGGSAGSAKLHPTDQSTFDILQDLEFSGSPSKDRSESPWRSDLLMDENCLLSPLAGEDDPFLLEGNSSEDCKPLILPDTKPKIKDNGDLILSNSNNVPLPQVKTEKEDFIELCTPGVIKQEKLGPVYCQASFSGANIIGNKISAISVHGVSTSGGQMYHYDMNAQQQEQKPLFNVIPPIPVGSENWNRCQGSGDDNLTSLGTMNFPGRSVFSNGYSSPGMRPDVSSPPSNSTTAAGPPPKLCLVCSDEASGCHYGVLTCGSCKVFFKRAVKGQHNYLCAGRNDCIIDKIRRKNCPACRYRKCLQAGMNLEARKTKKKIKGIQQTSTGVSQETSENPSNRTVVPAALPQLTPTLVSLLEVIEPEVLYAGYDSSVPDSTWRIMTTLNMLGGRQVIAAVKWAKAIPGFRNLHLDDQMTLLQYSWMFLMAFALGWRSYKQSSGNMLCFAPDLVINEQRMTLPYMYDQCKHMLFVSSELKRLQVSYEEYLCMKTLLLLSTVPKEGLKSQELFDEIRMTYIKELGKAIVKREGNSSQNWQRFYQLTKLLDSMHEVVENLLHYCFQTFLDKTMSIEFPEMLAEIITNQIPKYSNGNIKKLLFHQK
Protocol: Certain antiprogestins were tested in receptor-binding assays for their ability to bind rabbit progesterone receptor (rbPR) and glucocorticoid receptor (rbGR). […] For PR binding, the cytosol was incubated with 6 nM 1,2-[^3H]progesterone (50.0 Ci/mmole) and competitors were added at concentrations from 2 to 100 nM. For binding to GR, the cytosol was incubated with 6 nM 6,7-[^3H]-dexamethasone (40 Ci/mmol) and test compounds were added at concentrations from 20 to 100 nM. After overnight incubation at 4° C., bound and unbound [^3H] steroids were separated by addition of dextran-coated charcoal and centrifugation at 2100×g for 15 min at 4
C. Supernatants containing the [3H]-steroid receptor complexes were decanted into vials containing 4 ml Optifluor (Packard Instrument Co.), vortexed, equilibrated in a liquid scintillation counter for 30 minutes and then counted for 2 minutes. […] The standards for the PR and GR assays were unlabeled progesterone and dexamethasone, respectively.

[3] = Estrogen levels in human females during administration; type: in vivo; settings: administration periods of at least six months
rabbit uterus = assay: Anti-McGinty and anti-Clauberg assays; type: in vivo; settings: average of anti-McGinty and anti-Clauberg results relative to CDB-2914 = 1.00
Procedure, shortened: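 Immature female rabbits were primed with 5 μg estradiol s.c. daily for 6 days. Anti-McGinty: compound given intraluminally into a ligated uterine segment, with progesterone 267 μg/day s.c. for 3 days. Anti-Clauberg: compound oral or s.c. with progesterone 160 μg/day for 5 days. Histological endometrial proliferation inhibition, averaged over both assays, is given relative to CDB-2914.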

[4] = Animal weight during the study; type: in vivo; settings: weighed weekly, 27-week study period
Text: The weights of the control animals were compared to those receiving hormonal treatment to better assess toxicity, especially that due to CDB-4124. The animals were weighed weekly during the 27-week study period.

T47Darom cells = assay: Crystal violet cell proliferation assay in aromatase-overexpressing T47D cells; type: cell-based; settings: Homo sapiens, 96 h, 4 μM alone, 4 days
Text: Untreated cells were used as a control. The crystal violet assay was used to measure cell proliferation. The dye in this assay, crystal violet, stains DNA. Upon solubilization, the amount of dye taken up by the cells can be quantitated in a spectrophotometer.

SMILES: CC#C[C@]1(O)CC[C@H]2[C@@H]3CCC4=CC(=O)CCC4=C3[C@@H](c3ccc(N(C)C)cc3)C[C@@]21C [RU 486, mifepristone, reference compound]
- PR expression in tumors (in words) [1]: neutral for PR
- anti-glucocorticoid receptor activity / glucocorticoid receptor binding (in words) [2]: moderately active in glucocorticoid receptor binding

SMILES: COCC(=O)[C@@]1(OC(C)=O)CC[C@H]2[C@@H]3CCC4=CC(=O)CCC4=C3[C@@H](c3ccc(N(C)C)cc3)C[C@@]21C [CDB-4124, 21-methoxy-17α-acetoxy-11β-(4 N,N-dimethylaminophenyl)-19-norpregna-4,9-diene-3,20-dione]
- estrogen levels in human females (in words) [3]: maintain estrogen levels in the normal range
- rabbit Biol. Act. (rabbit uterus): 3.60
- toxicity by animal weight, treated vs. control (in words) [4]: not toxic, even at a high dose level
- inhibition at 4 µM (T47Darom cells): < 30%
